Measurements reported in US20260207569A1, “LPA1 ANTAGONISTS FOR TREATING INTERSTITIAL LUNG DISEASE” (Bristol-Myers Squibb Company, priority 2022, published 2026).

Legend:
participants with PPF = experiment: Phase 2 PPF cohort efficacy: rate of FVC decline (% predicted) / FVC to Week 26; assay type: in vivo, human; details: for Mean observed change from baseline in ppFVC and FVC vs placebo: to week 26
Experimental: (§1) A total of 123 participants with PPF were randomized. Participants (age ≥21 years) were randomized (1:1:1) to receive 30 mg or 60 mg Compound A or PBO twice daily for 26 weeks. […] Immunosuppressive medications (mycophenolate mofetil, mycophenolic acid, azathioprine and/or tacrolimus) were permitted only if dosing is stable for ≥6 months prior to screening. If receiving antifibrotic agents pirfenidone or nintedanib, patients had to receive a stable dosage for ≥3 months prior to screening and during the screening period; if not receiving pirfenidone or nintedanib, patients had to be naive to both drugs or not have received either 4 weeks prior to Day 1. A total of 47 (38.2%) subjects were receiving antifibrotic treatment (with or without immunosuppression therapy). Of those subjects, 34 were being treated with nintedanib and 13 with pirfenidone. Participants were stratified by usual interstitial pneumonia (UIP) pattern (presence versus absence) and background therapy (antifibrotics +/−ILD-targeted immunosuppression versus ILD-targeted immunosuppression alone versus none). UIP pattern was present in 52% of subjects and unclassifiable ILD was he most common disease categorization.
The study was not powered to detect statistical significance (no formal testing). No target effect size was defined in the study design. There were two estimand approaches for analysis: • Treatment Policy: Effect of treatment with dose reduction as part of treatment regimen. • While-On Treatment: Effect of treatment without dose reduction.
The main efficacy endpoint, rate of FVC decline (in % of predicted) from baseline to wk-26 in the PPF cohort, was estimated using a linear mixed-effects model utilizing all FVC timepoints. It was analyzed under a primary estimand (utilizing all data, treatment policy strategy), and under supplementary estimand (utilizing all data up to the point of dose reduction, while-on-treatment strategy). Analysis was performed in the overall population as well as in sub-groups by 1) background anti-fibrotic treatment or not 2) UIP radiographic pattern (presence or not). The mean baseline ppFVC was 66.7% for the PPF cohort.

[1] = Phase 2 PPF cohort safety: adverse events, prespecified asymptomatic or symptomatic blood pressure reduction criteria, dose reductions; assay type: in vivo, human; details: for Patients with asymptomatic blood pressure reduction, (%) / Patients with asymptomatic blood pressure reduction, no. / Patients with symptomatic blood pressure reduction, (%) / Patients with symptomatic blood pressure reduction, no.: prespecified criteria
Experimental: as §1
Patient is experiencing any of the following, confirmed by retest within 15 minutes: • Seated systolic blood pressure <85 mmHg • Seated diastolic blood pressure <55 mmHg • Orthostatic hypotension
Patient is experiencing symptoms that, in the investigator's opinion, could be associated with a reduction in blood pressure and is also experiencing at least one of the following, confirmed by retest within 15 minutes: • Seated systolic blood pressure <100 mmHg or seated diastolic blood pressure <60 mmHg • Decrease of seated systolic blood pressure of ≥20 mmHg from the previous visit or decrease of seated diastolic blood pressure of ≥10 mmHg from the previous visit • Orthostatic hypotension • Orthostatic tachycardia

[2] = PPF cohort, 30-mg Compound A (n = 40)
[3] = PPF cohort, 60-mg Compound A (n = 42)

Question: Which “Treatment differences by UIP pattern” value (participants with PPF; PPF cohort) does the source give for CCCN(C)C(=O)OCc1c(-c2ccc(O[C@H]3CCC[C@H](C(=O)O)C3)c(C)n2)nnn1C [Compound A, (1S,3S)-3-((2-methyl-6-(1-methyl-5-(((methyl(propyl)carbamoyl)-oxy)methyl)-1H-1,2,3-triazol-4-yl)pyridin-3-yl)oxy)cyclohexane-1-carboxylic acid] here?
Answer: treatment differences were seen in the PPF cohort independent of UIP pattern presence or absence

Question: What about the “Treatment differences in rates of change in ppFVC by background antifibrotic use” value (participants with PPF; PPF cohort) of the same compound?
Answer: consistent with or without background antifibrotic use

Question: And the “Dose response of efficacy” value (participants with PPF; PPF cohort, 30 mg and 60 mg BID)?
Answer: Clear dose response

Question: And the “Consistency of efficacy across sub-groups” value (participants with PPF; PPF cohort, background antifibrotics, UIP pattern)?
Answer: Efficacy consistent in all sub-groups

Question: And the “Rate of decline in FVC (% Predicted), slope” value (from here on “Rate … (% Predicted), slope”) (participants with PPF; PPF, 30 mg BID, UIP absent, supplementary estimand)?
Answer: −2.24 % Predicted

Question: And the “Rate … (% Predicted), slope” value (participants with PPF; PPF, 30 mg BID, UIP present, primary estimand)?
Answer: −3.07 % Predicted

Question: And the “Rate … (% Predicted), slope” value (participants with PPF; PPF, 30 mg BID, not receiving antifibrotic treatment, supplementary estimand)?
Answer: −2.83 % Predicted

Question: And the “Rate … (% Predicted), slope” value (participants with PPF; PPF, 30 mg BID, overall population, primary estimand (treatment policy), 26 weeks)?
Answer: −2.7 % Predicted

Question: What about the “Rate … (% Predicted), slope” value (participants with PPF; PPF, 30 mg BID, receiving antifibrotic treatment, supplementary estimand) of the same compound?
Answer: −1.8 % Predicted

Question: What about the “Mean observed change from baseline in ppFVC and FVC vs placebo” value (participants with PPF; PPF, 30 mg BID) of the same compound?
Answer: shows more significant improvement after week 20

Question: What about the “Rate … (% Predicted), slope” value (participants with PPF; PPF, 60 mg BID, UIP absent, supplementary estimand) of the same compound?
Answer: −0.7 % Predicted

Question: And the “Rate … (% Predicted), slope” value (participants with PPF; PPF, 60 mg BID, UIP present, primary estimand)?
Answer: −1.46 % Predicted

Question: What about the “Rate … (% Predicted), slope” value (participants with PPF; PPF, 60 mg BID, not receiving antifibrotic treatment, supplementary estimand) of the same compound?
Answer: −1.56 % Predicted

Question: And the “Rate … (% Predicted), slope” value (participants with PPF; PPF, 60 mg BID, overall population, supplementary estimand (while on treatment), 26 weeks)?
Answer: −1.3 % Predicted

Question: What about the “Rate … (% Predicted), slope” value (participants with PPF; PPF, 60 mg BID, receiving antifibrotic treatment, supplementary estimand) of the same compound?
Answer: −1.1 % Predicted

Question: And the “Mean observed change from baseline in ppFVC and FVC vs placebo” value (participants with PPF; PPF, 60 mg BID)?
Answer: maintains the improvement over placebo through the end of week 26

Question: What about the “Slope difference, 60 mg − placebo” value (participants with PPF; PPF, UIP absent, supplementary estimand) of the same compound?
Answer: 3.8 % Predicted

Question: What about the “Slope difference, 30 mg − placebo” value (participants with PPF; PPF, UIP present, primary estimand) of the same compound?
Answer: 0.88 % Predicted

Question: What about the “Slope difference (S.E.), 60 mg − placebo” value (participants with PPF; PPF, overall population, primary estimand (treatment policy)) of the same compound?
Answer: 3.2 % Predicted

Question: And the “Slope difference (S.E.), 60 mg − placebo” value (participants with PPF; PPF, overall population, supplementary estimand (while on treatment))?
Answer: 2.9 % Predicted

Question: And the “Day-1 blood pressure reduction” value ([1]; PPF cohort)?
Answer: dose dependent day-1 blood pressure reduction

Question: What about the Marked laboratory abnormalities ([1]; PPF cohort) of the same compound?
Answer: No notable imbalances in marked laboratory abnormalities among treatment groups

Question: What about the “Prespecified blood pressure reduction criteria across arms” value ([1]; PPF cohort) of the same compound?
Answer: increased in a dose-dependent manner

Question: What about the “Patients with dose reductions, (%)” value [1, 2] of the same compound?
Answer: (15.0) %

Question: And the “Patients with dose reductions, no.” value [1, 2]?
Answer: 6 no.

Question: And the “Patients with orthostatic hypotension (within asymptomatic blood pressure reduction), (%)” value [1, 2]?
Answer: (15.0) %

Question: What about the “Patients with orthostatic hypotension (within asymptomatic blood pressure reduction), no.” value [1, 2] of the same compound?
Answer: 6 no.

Question: And the “Patients with orthostatic hypotension (within symptomatic blood pressure reduction), (%)” value [1, 2]?
Answer: (2.5) %

Question: What about the “Patients with orthostatic hypotension (within symptomatic blood pressure reduction), no.” value [1, 2] of the same compound?
Answer: 1 no.

Question: What about the “Patients with asymptomatic blood pressure reduction, (%)” value [1, 2] of the same compound?
Answer: (22.5) %

Question: And the “Patients with asymptomatic blood pressure reduction, no.” value [1, 2]?
Answer: 9 no.

Question: And the “Patients with symptomatic blood pressure reduction, (%)” value [1, 2]?
Answer: (5.0) %

Question: And the “Patients with symptomatic blood pressure reduction, no.” value [1, 2]?
Answer: 2 no.

Question: And the “Patients with dose reductions, (%)” value [1, 3]?
Answer: (11.9) %

Question: And the “Patients with dose reductions, no.” value [1, 3]?
Answer: 5 no.

Question: What about the “Patients with orthostatic hypotension (within asymptomatic blood pressure reduction), (%)” value [1, 3] of the same compound?
Answer: (26.2) %

Question: And the “Patients with orthostatic hypotension (within asymptomatic blood pressure reduction), no.” value [1, 3]?
Answer: 11 no.

Question: And the “Patients with orthostatic hypotension (within symptomatic blood pressure reduction), (%)” value [1, 3]?
Answer: (9.5) %

Question: What about the “Patients with orthostatic hypotension (within symptomatic blood pressure reduction), no.” value [1, 3] of the same compound?
Answer: 4 no.

Question: What about the “Patients with asymptomatic blood pressure reduction, (%)” value [1, 3] of the same compound?
Answer: (31.0) %

Question: What about the “Patients with asymptomatic blood pressure reduction, no.” value [1, 3] of the same compound?
Answer: 13 no.

Question: And the “Patients with symptomatic blood pressure reduction, (%)” value [1, 3]?
Answer: (14.3) %

Question: And the “Patients with symptomatic blood pressure reduction, no.” value [1, 3]?
Answer: 6 no.

Question: And the “Low BP thresholds (“events”)” value ([1]; PPF, 30 mg BID)?
Answer: 30%

Question: What about the “COVID-19, %” value ([1]; PPF, 30 mg BID (n = 40)) of the same compound?
Answer: (15.0) %

Question: What about the “COVID-19, no.” value ([1]; PPF, 30 mg BID (n = 40)) of the same compound?
Answer: 6

Question: And the “Cough, %” value ([1]; PPF, 30 mg BID (n = 40))?
Answer: (7.5) %

Question: What about the “Cough, no.” value ([1]; PPF, 30 mg BID (n = 40)) of the same compound?
Answer: 3
